Test system: Influenza A virus
Experiment: Antiviral activity against Influenza A virus (A/Puerto Rico/8/34(H1N1)) infected in MDCK cells assessed as inhibition of virus-induced cytopathic effect after 48 hrs by crystal violet staining technique
Format: functional, organism-based
Details: A/Puerto Rico/8/1934(H1N1)

Row | SMILES | IC50
1 | C/C=C/C=C/C(O)=C1/C(=O)[C@]2(C)C(=O)[C@@](C)(O)[C@H]1C[C@@H]2c1ccc(O)c(OC)c1 | 85 µM
2 | C/C=C/C=C/C(O)=C1/C(=O)[C@]2(C)C(=O)[C@@](C)(O)[C@H]1C[C@H]2c1ccc(O)c(OC)c1 | 113 µM
3 | NC(=O)c1ncn([C@@H]2O[C@H](CO)[C@@H](O)[C@H]2O)n1 [RIBAVIRIN] | 84 µM
